The source of these data is US12558312B2, “Solid dosage form for transmucosal drug delivery” (Primo Pharmatech LLC, priority 2020, dated 2026).

The nature of this data set: In-vitro permeation testing with a Franz Cell Diffusion System.

Counter-ions that a name gives are not always drawn.

Procedure: In-vitro Permeation testing was performed for the dosage forms in Table 8 with a Franz Cell Diffusion System. The receiving chamber was filled in water solution and stirred with magnetic bar. Fix the PermeaPad® Barrier membrane at the surface. The PermeaPad® Barrier consists of two cellulose membranes and in between there is a Lipid layer Lecithine (S-100). Place the donating chamber onto the receiving chamber and effectively sandwich the membrane. Add 5 mg of the film prepared in Table 8 into the donating chamber and introduce 1 ml of water to dissolve the film. Start the timer for the experiment.
Permeability (P, cm/h), in general within first 8 hours, is defined as the rate of flow of liquid through the membrane.
The similar procedure was performed for the other APIs with a molecule weight ranging from 100 to 6000 g/mol.

Take `CN1CCc2cccc3c2[C@H]1Cc1ccc(O)c(O)c1-3` [Apomorphine HCL]: the “Pemeability (cm/h) via PermeaPad Biomimetic Membrane in vitro” value (“Pemeability” below) is reported as “(HLB15), 2.73 (HLB9.0) cm/h” (HLB9.0); 1.87 cm/h (HLB15); 0.413 cm/h (no enhancers).
Turning to `NC(=O)c1ccc[n+]([C@@H]2O[C@H](COP(=O)([O-])O)[C@@H](O)[C@H]2O)c1` [Beta-nicotinamide mononucleotide, NMN, Beta-nicotinamide mononucleotide], the “Pemeability” value runs as follows: (HLB4.3) 0.23 (HLB4.3), cm/h; (HLB9.4) 0.38 (HLB9.4) cm/h; (no enhancers) 0.23 (No enhancers), cm/h.
Take `CC[C@H](C)[C@H](NC(=O)[C@H](CCC(=O)O)NC(=O)[C@H](CCC(=O)O)NC(=O)[C@H](Cc1ccccc1)NC(=O)[C@H](CC(=O)O)NC(=O)CNC(=O)[C@H](CC(N)=O)NC(=O)CNC(=O)CNC(=O)CNC(=O)CNC(=O)[C@@H]1CCCN1C(=O)[C@H](CCCNC(=N)N)NC(=O)[C@@H]1CCCN1C(=O)[C@H](N)Cc1ccccc1)C(=O)N1CCC[C@H]1C(=O)N[C@@H](CCC(=O)O)C(=O)N[C@@H](CCC(=O)O)C(=O)N[C@@H](Cc1ccc(O)cc1)C(=O)N[C@@H](CC(C)C)C(=O)O` [Bivalirudin Peptide, Bivalirudin]: the “Pemeability” value (enhancer condition not stated) is recorded as “Un-detectable”.
`Cn1c(=O)c2c(ncn2C)n(C)c1=O` [Caffeine]: the “Pemeability” value runs as follows: (HLB9.4) “(HLB15), 7.76 (HLB9.4) cm/h”; (HLB15) 5.01 cm/h; (no enhancers) 0.277 cm/h.
For the molecule Insulin, where the note is “enhancer condition not stated”, the “Pemeability” value is given as “Un-detectable”.
